From patent US5494813A, “Nematode control with proteinase inhibitors” (Nickerson Biocem Limited, priority 1991, dated 1996)
Entries after “also recorded” stand apart in the source; their conditions may differ.

Key:
[1] = test system: endoproteinase activity of G. pallida; experiment: Endoproteinase activity of G. pallida female homogenate on RUBISCO with inhibitors/activators (SDS-PAGE densitometry); format: biochemical, Globodera pallida; settings: RUBISCO substrate; for % enzyme activity: pH 5.7, 25 C, mean ± SEM, control 100 ± 7, 30 min
Method: Females of G. pallida were removed from potato roots and homogenised in EDTA (1 mm)-NaOH buffered distilled water (pH 6.0). The nematode homogenate was clarified by centrifugation at 13,000 g for 2 min and passed through non-absorbent cotton wool. The filtrate was used directly as the source of crude proteinases. pH was controlled using 0.1M of citrate-phosphate, sodium-phosphate and phosphate-carbonate buffers for pH 3.0-6.0, pH 6.5-7.5 and 8.0-8.5 respectively. These buffers were mixed with equal volume of the nematode homogenate and RUBISCO (150 μg) in 0.04% SDS resulting in a final reaction volume of 75 μl . […] The tubes were kept on ice for 30 min for full precipitation to occur. The supernatant was clarified by centrifugation (13,000 g, 2 min). The liberation of TCA-soluble amino groups from digested RUBISCO was used to quantify the proteolytic activity of nematode homogenates using 2, 4,6-trinitrobenzsulphonic acid (TNBS). TNBS reagent was made by mixing one volume of 0.3% (w/v) TNBS in water with four volume of 4% (w/v) sodium tetraborate in 0.15M NaOH. 250 μl of the reagent was mixed with 75 μl of sample and the reaction was allowed to proceed for 60 min at 30° C. before terminating by adding […] of 0.5M HCl. The absorbance at 340 nm was read against both homogenate and RUBISCO controls. Results are expressed as nmol of TCA-soluble amino groups liberated per min at 25° C. using a standard curve based on L-leucine in CP buffer.
Subsequent work was based on pH 5.7 using CP buffer. Females of G. pallida were rinsed in 50 mM CP buffer plus 1 mM EDTA and homogenised in ice-cold 50 mM CP buffer, centrifuging and filtering as before. The EDTA wash step was omitted for experiments using inhibitors or activators (see below).
25 μl of RUBISCO (from a stock solution in CP buffer of 1 mg/ml containing 0.04% SDS) was added to 20 μl of the sample homogenate and either 5 μl CP buffer or 5 μl of inhibitor/activator. After incubation for 60 min, the reaction was stopped by adding 30 μl of denaturing buffer and boiling for 2.5 min.
Stock inhibitor and activator solutions (Table 3) were made up in buffer and added to the nematode extract. The inhibitor/activator was pre-incubated with the enzyme solutions for 30 min at 25° C. before addition to the protein substrate
The gel was stained using Coomassie Brilliant Blue.
In order to elucidate the effect of activators and inhibitors on the proteolytic activity of nematode proteinase(s), RUBISCO was treated with the extract at 25 C. at a substrate protein-nematode protein ratio (w/w) of 8. After a 30 min incubation, the reaction mixture was terminated and analysed by SDS-PAGE. The RUBISCO substrate band in the gel was quantified densitometrically (Joyce Loble Chromscan 3), and the amount of protein remaining gave an estimation of the rate of activity of the proteinase.

[2] = test system: proteolytic activity of the 5HT-induced exudate from J2; experiment: Proteolytic activity of the 5HT-induced exudate from J2 of G. pallida (biotin/gelatin microtitre plate assay); format: biochemical, Globodera pallida; settings: for Relative Activity (% of controls at that pH), pH 5 / Relative Activity (% of controls at that pH), pH 6.8: CpTi 10 μg/ml, rice preparations 30 μg/ml, other concentrations not given; for Relative Activity (% of controls at that pH), pH 6.8: maize preparation 20 μg/ml
Method: Freshly hatched juveniles of G. pallida were incubated in 2.5 mM 5'hydroxytryptamine in water at 20° C. for 4 h. This caused material to exude from the mouth which can be visualized at the mouth by allowing the protein stain Ponceau S to diffuse through a small aliquot of the experimental sample containing the nematodes under a microscope slide and coverslip. Worms were removed from the medium by centrifugation at 3000 g for 2 min before the fluid was dialyzed at 4° C. against distilled water overnight. The material was freeze-dried in aliquots at -70° C. until use and reconstituted to 2.5 μg protein/ml dH2 O at 5° C. immediately before use. Assays were carried out in a reaction mixture prepared by mixing 50 μl of this solution with 20 μl of either 100 mM phosphate buffer at pH 6.8 or 100 mM titrate/phosphate buffer at pH 5 plus either 10 μl of the inhibitor under test at the concentrations given in Table 7 or dH2 O for corresponding control rates for the uninhibited exudate.
The assays were carried out by coating microtitre plates (NUNC) with 50 μl of 0.01 μg/ml biotin/gelatin in carbonate buffer (pH 9.6) overnight at 4° C. The plates were blocked with 1% gelatin and washed with PBS before adding 75 μl of freshly prepared reaction mixture for 18 h. The reaction was stopped by washing wells eight times with PBS-tween before adding 100 μl of avidin-conjugated alkaline phosphatase with 1% goat serum to each well for 1 h. The wells were washed as before with PBS-tween followed by 2 rinses in PBS before addition of 100 μl of 1 mg/ml P-nitrophenyl phosphate in substrate buffer (10% diethanolamine and 0.5 mM MgCl2) at pH 9.8. The color development was read at 405 nm using a plate reader (Biorad). All samples were compared against a reference blank which lacked nematode exudate preparation in the reaction mixture.

N[C@@H](CS)C(=O)O [Cys, cysteine]
Effect on endoproteinase activity (in words) ([1]; pH 5.7): stimulated
% enzyme activity [1]: 112 ± 5%
Effect on proteolytic activity of the exudate at pH 5 (in words) [2]: stimulated
Relative Activity (% of controls at that pH), pH 5 [2]: > 100%
Relative Activity (% of controls at that pH), pH 6.8 ([2]; pH 6.8): 100%

OC(CS)C(O)CS (centres unmarked) [DTT]
Effect on endoproteinase activity (in words) ([1]; pH 5.7): stimulated
% enzyme activity [1]: 128 ± 11%

CC(C)C[C@H](NC(=O)[C@H]1O[C@@H]1C(=O)O)C(=O)NCCCCN=C(N)N [E-64, L-trans-epoxysuccinyl-leucylamide-(4-guanidino)-butane]
Inhibition of proteolytic activity ([1]; pH 5.7): 21%
% enzyme activity [1]: 79 ± 6%
Effect on proteolytic activity of the exudate at pH 5 (in words) [2]: inhibited
Relative Activity (% of controls at that pH), pH 5 [2]: 0%
Relative Activity (% of controls at that pH), pH 6.8 ([2]; pH 6.8): 5%

O=C(O)CN(CCN(CC(=O)O)CC(=O)O)CC(=O)O [EDTA]
Effect on proteolytic activity of the exudate at pH 5 (in words) [2]: stimulated
Relative Activity (% of controls at that pH), pH 5 [2]: > 100%
Effect on proteolytic activity of the exudate at pH 6.8 (in words) ([2]; pH 6.8): inhibited
Relative Activity (% of controls at that pH), pH 6.8 ([2]; pH 6.8): 93%

CC(=O)[O][Hg][c]1ccccc1 [PMA]
Effect on endoproteinase activity (in words) ([1]; pH 5.7): almost total inhibition
% enzyme activity [1]: 11 ± 6%

p-aminomercuribenzoate [PAMBA]
Effect on endoproteinase activity (in words) ([1]; pH 5.7): potent inhibitor; also recorded: almost total inhibition
% enzyme activity [1]: 3 ± 4%
